Target: human PAD4 (Homo sapiens (Human), UniProt Q9UM07)
Experiment: In Vitro PAD4 BAEE Biochemical Assay
Conditions: human PAD4, BAEE substrate; 5 nM PAD4, 2 mM calcium chloride, 3 mM BAEE; geometric mean of multiple experiments
Method in brief: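 Deimination of BAEE substrate (3 mM) measured as ammonia via o-phthalaldehyde–DTT isoindole fluorescence, 405/535 nm. Tag-free bacterially expressed human PAD4 at 5 nM with 2 mM calcium chloride, pH 7.6 MOPS buffer, 30 min compound preincubation then 2 h reaction, both at 25 °C.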

Chain of human PAD4 (Q9UM07 2-663): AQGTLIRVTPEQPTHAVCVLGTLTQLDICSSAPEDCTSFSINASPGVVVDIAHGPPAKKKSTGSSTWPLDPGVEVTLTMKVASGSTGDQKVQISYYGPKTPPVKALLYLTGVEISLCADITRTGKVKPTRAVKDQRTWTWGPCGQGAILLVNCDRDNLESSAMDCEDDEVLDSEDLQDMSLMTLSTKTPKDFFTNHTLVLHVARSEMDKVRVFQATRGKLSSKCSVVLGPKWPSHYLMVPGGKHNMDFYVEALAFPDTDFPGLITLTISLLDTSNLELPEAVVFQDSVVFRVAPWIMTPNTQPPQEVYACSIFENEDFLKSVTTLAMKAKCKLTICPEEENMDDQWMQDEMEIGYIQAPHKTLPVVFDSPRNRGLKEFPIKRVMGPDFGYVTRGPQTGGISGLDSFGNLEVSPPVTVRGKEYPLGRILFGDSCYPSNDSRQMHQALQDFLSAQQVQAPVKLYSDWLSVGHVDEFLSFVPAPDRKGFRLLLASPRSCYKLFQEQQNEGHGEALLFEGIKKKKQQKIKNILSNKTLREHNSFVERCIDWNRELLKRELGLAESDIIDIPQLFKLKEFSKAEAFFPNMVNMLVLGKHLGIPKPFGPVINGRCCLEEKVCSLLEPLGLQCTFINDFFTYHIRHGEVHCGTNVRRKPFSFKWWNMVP

IC50 | SMILES
50000 nM | COc1cc(C(=O)N[C@@H]2CNC[C@H]2NC(=O)CCCN(C)C)cc2nc(-c3cc4ccc(N(C(F)F)S(C)(=O)=O)nc4n3CC3CC3)n(C)c12 [Example 83, 2-(1-(cyclopropylmethyl)-6-((N-(difluoromethyl)methyl)sulfonamido)-1H-pyrrolo[2,3-b]pyridin-2-yl)-N-((3R,4R)-4-(4-(dimethylamino)butanamido)pyrrolidin-3-yl)-7-methoxy-1-methyl-1H-benzo[d]imidazole-5-carboxamide]
687 nM | COc1cc(C(=O)N2C[C@H](N)CC[C@@H]2C)cc2nc(-c3cc4ccc(-c5cccnc5N5CCCC5)nc4n3CC3CC3)n(C)c12 [Example 263, ((2S,5R)-5-amino-2-methylpiperidin-1-yl)(2-(1-(cyclopropylmethyl)-6-(2-(pyrrolidin-1-yl)pyridin-3-yl)-1H-pyrrolo[2,3-b]pyridin-2-yl)-7-methoxy-1-methyl-1-benzo[d]imidazol-5-yl)methanone]
320 nM | COc1cc(C(=O)N2C[C@H](N)CC[C@@H]2C)cc2nc(-c3cc4ccc(-c5cccnc5-c5ccccc5)nc4n3CC3CC3)n(C)c12 [Example 283, ((2S,5R)-5-amino-2-methylpiperidin-1-yl)(2-(1-(cyclopropylmethyl)-6-(2-phenylpyridin-3-yl)-1H-pyrrolo[2,3-b]pyridin-2-yl)-7-methoxy-1-methyl-1H-benzo[d]imidazol-5-yl)methanone]
36800 nM | COc1cc(C(=O)N2C[C@@H]3CC[C@@](N)(C3)C2)cc2nc(-c3cc4ccc(N(C(F)F)S(C)(=O)=O)nc4n3CC3CC3)n(C)c12 [Example 61, N-(2-(5-((1R,5R)-1-amino-3-azabicyclo[3.2.1]octane-3-carbonyl)-7-methoxy-1-methyl-1H-benzo[d]imidazol-2-yl)-1-(cyclopropylmethyl)-1H-pyrrolo[2,3-b]pyridin-6-yl)-N-(difluoromethyl) methanesulfonamide]
39400 nM | COc1cc(C(=O)N[C@H]2CNC[C@@H]2NC(C)=O)cc2nc(-c3cc4ccc(N(C(F)F)S(C)(=O)=O)nc4n3CC3CC3)n(C)c12 [Example 70, N-((3S,4S)-4-acetamidopyrrolidin-3-yl)-2-(1-(cyclopropylmethyl)-6-((N-(difluoromethyl)methyl)sulfonamido)-1H-pyrrolo[2,3-b]pyridin-2-yl)-7-methoxy-1-methyl-1H-benzo[d]imidazole-5-carboxamide]
2130 nM | COc1cc(C(=O)N2C[C@H](N)CC[C@@H]2C)cc2nc(-c3cc4ccc(N(C(F)F)S(C)(=O)=O)nc4n3CC3CC3)n(C34CC(C3)C4)c12 [Example 48, N-(2-(5-((2S,5R)-5-amino-2-methylpiperidine-1-carbonyl)-1-(bicyclo[1.1.1]pentan-1-yl)-7-methoxy-1H-benzo[d]imidazol-2-yl)-1-(cyclopropylmethyl)-1H-pyrrolo[2,3-b]pyridin-6-yl)-N-(difluoromethyl) methane sulfonamide]
88.2 nM | CCN(c1ccc2cc(-c3nc4cc(C(=O)N5C[C@H](N)CC[C@@H]5C)cc(OC)c4n3C)n(CC3CC3)c2n1)S(C)(=O)=O [Example 30, N-(2-(5-((2S,5R)-5-amino-2-methylpiperidine-1-carbonyl)-7-methoxy-1-methyl-1H-benzo[d]imidazol-2-yl)-1-(cyclopropylmethyl)-1H-pyrrolo [2,3-b]pyridin-6-yl)-N-ethylmethanesulfonamide]
210 nM | COc1cc(C(=O)N2CCC[C@@H](N)C2)cc2nc(-c3cc4ccc(N(C)S(C)(=O)=O)cc4n3CC3CC3)n(C)c12 [Example 2, (R)-N-(2-(5-(3-aminopiperidine-1-carbonyl)-7-methoxy-1-methyl-1H-benzo[d]imidazol-2-yl)-1-(cyclopropylmethyl)-1H-indol-6-yl)-N-methylmethanesulfonamide]
92.1 nM | COc1cc(C(=O)N2C[C@H](N)CCN2C)cc2nc(-c3cc4ccc([C@@H](C)NC(=O)C5CC(F)(F)C5)nc4n3CC3CC3)n(C)c12 [Example 162, N-((R)-1-(2-(5-((R)-5-amino-2-methylhexahydropyridazine-1-carbonyl)-7-methoxy-1-methyl-1H-benzo[d]imidazol-2-yl)-1-(cyclopropylmethyl)-1H-pyrrolo[2,3-b]pyridin-6-yl)ethyl)-3,3-difluorocyclobutane-1-carboxamide]
67.1 nM | COc1cc(C(=O)N2C[C@H](N)CCN2C)cc2nc(-c3cc4ccc([C@@H](C)NC(=O)c5cnn(C(F)F)c5)nc4n3CC3CC3)n(C)c12 [Example 170, N-((R)-1-(2-(5-((R)-5-amino-2-methylhexahydropyridazine-1-carbonyl)-7-methoxy-1-methyl-1H-benzo[d]imidazol-2-yl)-1-(cyclopropylmethyl)-1H-pyrrolo[2,3-b]pyridin-6-yl)ethyl)-1-(difluoromethyl)-1H-pyrazole-4-carboxamide]
82 nM | CCN(c1ccc2cc(-c3nc4cc(C(=O)N5CCC[C@@H](N)C5)cc(OC)c4n3C)n(CC3CC3)c2n1)S(=O)(=O)C1CC1 [Example 25, (R)-N-(2-(5-(3-aminopiperidine-1-carbonyl)-7-methoxy-1-methyl-1H-benzo[d]imidazol-2-yl)-1-(cyclopropylmethyl)-1H-pyrrolo [2,3-b]pyridin-6-yl)-N-ethylcyclopropanesulfonamide]
2330 nM | COc1cc(C(=O)N2C[C@H](N)CC[C@@H]2C)cc2nc(-c3cc4ccc(-c5c(C)ccc6[nH]ncc56)nc4n3CC3CC3)n(C)c12 [Example 273, ((2S,5R)-5-amino-2-methylpiperidin-1-yl)(2-(1-(cyclopropylmethyl)-6-(5-methyl-1H-indazol-4-yl)-1H-pyrrolo[2,3-b]pyridin-2-yl)-7-methoxy-1-methyl-1H-benzo[d]imidazol-5-yl)methanone]
785 nM | COc1cc(C(=O)N2C[C@H](N)CC[C@@H]2C)cc2nc(-c3cc4ccc(N5CCCCC5=O)nc4n3CC3CC3)n(C)c12 [Example 272, 1-(2-(5-((2S,5R)-5-amino-2-methylpiperidine-1-carbonyl)-7-methoxy-1-methyl-1H-benzo[d]imidazol-2-yl)-1-(cyclopropylmethyl)-1H-pyrrolo[2,3-b]pyridin-6-yl)piperidin-2-one]

SMILES | IC50
COc1cc(C(=O)N2[C@H]3CC[C@@H]2[C@H](N)C3)cc2nc(-c3cc4ccc([C@@H](C)NC(=O)c5cnn(C(F)F)c5)cc4n3CC3CC3)n(C)c12 [Example 139, N-((R)-1-(2-(5-((1R,2R,4S)-2-amino-7-azabicyclo[2.2.1]heptane-7-carbonyl)-7-methoxy-1-methyl-1H-benzo[d]imidazol-2-yl)-1-(cyclopropylmethyl)-1H-indol-6-yl)ethyl)-1-(difluoromethyl)-1H-pyrazole-4-carboxamide] | 28.9 nM
COc1cc(C(=O)N2CCC[C@@H](N)C2)cc2nc(-c3cc4cc(F)c([C@@H](C)NC(=O)C56CC(F)(C5)C6)cc4n3CC3CC3)n(C)c12 [Example 145, N-((R)-1-(2-(5-((R)-3-aminopiperidine-1-carbonyl)-7-methoxy-1-methyl-1H-benzo[d]imidazol-2-yl)-1-(cyclopropylmethyl)-5-fluoro-1H-indol-6-yl)ethyl)-3-fluorobicyclo[1.1.1]pentane-1-carboxamide] | 62.8 nM
COc1cc(C(=O)N2[C@H]3CC[C@@H]2[C@H](N)C3)cc2nc(-c3cc4ccc([C@@H](C)NC(=O)c5ccccc5)nc4n3CC3CC3)n(C3CC3)c12 [Example 129, N-((R)-1-(2-(5-((1R,2R,4S)-2-amino-7-azabicyclo[2.2.1]heptane-7-carbonyl)-1-cyclopropyl-7-methoxy-1H-benzo[d]imidazol-2-yl)-1-(cyclopropylmethyl)-1H-pyrrolo[2,3-b]pyridin-6-yl)ethyl)benzamide] | 86 nM

Same assay, conditions: recombinant PAD4 5 nM, 2 mM calcium chloride, 3 mM BAEE substrate; geometric mean of multiple experiments

IC50 | SMILES
106 nM | COC(=O)N(C)c1ccc2cc(-c3nc4cc(C(=O)N5C[C@H](N)[C@@H]6CC[C@H]5C6)cc(OC)c4n3C)n(CC3CC3)c2n1 [Example 287, methyl (2-(5-((1S,4R,5R)-4-amino-2-azabicyclo[3.2.1]octane-2-carbonyl)-7-methoxy-1-methyl-1H-benzo[d]imidazol-2-yl)-1-(cyclopropylmethyl)-1H-pyrrolo[2,3-b]pyridin-6-yl)(methyl)carbamate]
81.1 nM | COc1cc(C(=O)N2C[C@H](N)[C@@H]3CC[C@H]2C3)cc2nc(-c3cc4ccc([C@@H](C)NC(=O)C5(C(F)F)CC5)nc4n3CC3CC3)n(C)c12 [Example 324, N-((R)-1-(2-(5-((1S,4R,5R)-4-amino-2-azabicyclo[3.2.1]octane-2-carbonyl)-7-methoxy-1-methyl-1H-benzo[d]imidazol-2-yl)-1-(cyclopropylmethyl)-1H-pyrrolo[2,3-b]pyridin-6-yl)ethyl)-1-(difluoromethyl)cyclopropane-1-carboxamide]
84.6 nM | COc1cc(C(=O)N2C[C@H](N)[C@@H]3CC[C@H]2C3)cc2nc(-c3cc4ccc([C@@H](C)NC(=O)C(C)(C)C(F)F)nc4n3CC3CC3)n(C)c12 [Example 323, N-((R)-1-(2-(5-((1S,4R,5R)-4-amino-2-azabicyclo[3.2.1]octane-2-carbonyl)-7-methoxy-1-methyl-1H-benzo[d]imidazol-2-yl)-1-(cyclopropylmethyl)-1H-pyrrolo[2,3-b]pyridin-6-yl)ethyl)-3,3-difluoro-2,2-dimethylpropanamide]
74.3 nM | COc1cc(C(=O)N2C[C@H](N)[C@@H]3CC[C@H]2C3)cc2nc(-c3cc4ccc([C@@H](C)NC(=O)C56C7C8C9C7C5C9C86)nc4n3CC3CC3)n(C)c12 (stereo partly drawn) [Example 299, N-((R)-1-(2-(5-((1S,4R,5R)-4-amino-2-azabicyclo[3.2.1]octane-2-carbonyl)-7-methoxy-1-methyl-1H-benzo[d]imidazol-2-yl)-1-(cyclopropylmethyl)-1H-pyrrolo[2,3-b]pyridin-6-yl)ethyl)cubane-1-carboxamide]

Reference: patent US11878965B2, “Inhibitors of peptidylarginine deiminases” (Gilead Sciences, Inc., priority 2020, dated 2024)
